# Key:
# [1] = system: carrageenan-induced paw edema in mice; conditions: oral administration one hour after induction of edema, next 24 hours; cited from earlier work
# human fibroblasts = human fibroblasts in vitro; cited from earlier work
# skin cells = conditions: in vitro; cited from earlier work
# hyaluronidase = assay: Hyaluronidase activity, pharmacopoeial method (USP); type: biochemical; conditions: experiments by the inventors
# Excerpt: US application US2010323985A discloses the use of a compound from the group of urolithins, urolithin B, as a component of a pharmaceutical or cosmetic preparation for topical and/or parenteral use. […] Urolithin B has been indicated as an example of one of hyaluronic acid degradation inhibitors, alone or in a mixture. With respect to the above, the inventors conducted experiments according to the pharmacopoeial method (USP), observing as a result no effect of urolithin A on hyaluronidase activity. […] Also, in the case of psoriasis, research is currently underway on effectiveness of hyaluronidase subcutaneous injections ([…] preparation; https://clinicaltrials.gov/ct2/show/NCT01987609).
# [2] = system: Wistar rats (DNCB-induced atopic dermatitis); assay: Peripheral blood morphology in DNCB-induced atopic dermatitis rat model; type: in vivo
# Experimental: Wistar rats aged 5-6 weeks (at the start of the experiment) kept under standard conditions with free access to feed and water were used for the tests. The animals were divided into 5 groups, 8 individuals in each group. To prepare 2,4-dinitrochlorobenzene (DNCB) composition inducing inflammation, DNCB was dissolved in 70% ethanol to a final concentration of 1.5% (w/v). Therapeutic composition was an ointment based on white petrolatum with 0.2% or 1.0% urolithin A added. The control ointment was white petrolatum without addition of urolithin A.
# The induction of chronic atopic dermatitis involved local 9-fold infiltration with 60 μl 1.5% 2,4-dinitrochlorobenzene (DNCB) on each (external and internal) surface of the right ear over 3 weeks (3 times a week). Negative control was the right ear of rats without induction inflammation.
# Treatment of atopic dermatitis with 0.2% or 1.0% urolithin composition and white petrolatum (control) or 1.0% hydrocortisone composition (positive control) was started eight days after sensitization—one day before the fourth application of DNCB. Ointments with appropriate for given group drug added were applied in a total volume of about 20 μl to each ear surface one day before and 6 hours after each DNCB application (for a period of 3 weeks). The negative control group consisted of rats without induced inflammation and treated with white petrolatum in a regimen analogous to the composition of urolithin A or hydrocortisone.
# 2 mL blood samples were drawn into syringes (containing heparin as an anticoagulant) from the heart under general anesthesia (isoflurane) on day 32 of the experiment. The test was conducted using the DIATRON automated hematology analyzer. Peripheral blood analysis included the assessment of morphotic elements in blood: erythrocytes, leukocytes and thrombocytes and determination of the number and percentage of different types of leukocytes—WBC as well as values of erythrocyte indicators: hemoglobin (HGB), hematocrit (HCT), mean corpuscular volume (MCV), mean corpuscular hemoglobin (MCH) and mean corpuscular hemoglobin concentration (MCHC).
# The experimental results obtained were analyzed using the Statistica 7.1 program (StatSoft, Inc., Tulsa, OK, USA) and presented as mean values±SE. Statistical significance was set at P≤0.05. The results with established normal distribution in the D'Agostin and Pearson test were prepared using two- or three-factor analysis of variance (ANOVA). Parametric post-hoc analysis for individual time points was performed using the Bonferroni test.
# [3] = system: IL-8, TNF-alpha and IL-1beta; assay: IL-8, TNF-alpha and IL-1beta production by LPS-stimulated human neutrophils (ELISA); type: cell-based; conditions: 40 μM (FIG. 12: 5, 10 and 40 μM); LPS 100 ng/mL, 24 h; derivatives compared with urolithin A
# Experimental: After isolation, neutrophils were suspended in RPMI 1640 medium supplemented with L-glutamine, HEPES and 10% FBS and incubated with urolithin A and its acylated derivatives (SG1, SG2, SG3, SG4, SG1_m, SG2_m, SG3_m) at a concentration of 40 μM for 1 hour before stimulation with LPS from Escherichia coli (100 ng/mL). After 24 hours, IL-8, TNF-alpha and IL-1beta levels were determined using the immunochemical ELISA method (BD biosciences). The effect on neutrophil viability was assessed using annexin V and propidium iodide staining.
# The obtained results of experiments on in vitro models were analyzed using the Statistica 13 program (StatSoft, Inc., Tulsa, OK, USA) and presented as mean values±SEM. Statistical significance was set at P≤0.05. The results with established normal distribution in the D'Agostin and Pearson test were prepared using analysis of variance (ANOVA). Parametric post-hoc analysis was performed using Dunnett's test.
# [4] = animal model; oral and intravenous administration; cited from earlier work
# ERK1/2 = ERK1/2 phosphorylation in THP-1 derived macrophages (Western blotting); type: cell-based, human; conditions: 40 μM; LPS 10 ng/mL, 35 min; FIG. 15
# Experimental: Monocytes of the THP-1 line were cultured in RPMI 1640 medium supplemented with 10% FBS and 2 mM glutamine. For transformation of monocytes into macrophages, the cells were treated with 12.5 ng/mL PMA (phorbol 12-myristate 13-acetate) for 48 hours, then washed and incubated for 24 hours in a culture medium without PMA. After this time, urolithin A, urolithin B, iso-urolithin A and the corresponding glucuronides (GUA, GUB and GiUA) were added to the cells at a concentration of 40 μM. After 1 hour of incubation with the compounds, the cells were stimulated with LPS from Escherichia coli (10 ng/mL). To assess the level of TNF-alpha production, the cells were incubated for 6 hours, to assess the expression of mRNA for TNF-alpha, the cells were incubated for 24 hours, to assess the effect on ERK1/2 phosphorylation, the cells were incubated for 35 minutes. […] The obtained results of experiments on in vitro models were analyzed using the Statistica 13 program (StatSoft, Inc., Tulsa, OK, USA) and presented as mean values±SEM. Statistical significance was set at P≤0.05. The results with established normal distribution in the D'Agostin and Pearson test were prepared using analysis of variance (ANOVA). Parametric post-hoc analysis was performed using Dunnett's test.
# [5] = day 32, 1% hydrocortisone, urolithin A 0.2 and 1%
smiles,measurement,setting,value
O=c1oc2cc(O)ccc2c2ccc(O)cc12 [urolithin A],Carrageenan-induced paw edema size,[1],significantly reduced its size
same,Collagen synthesis,human fibroblasts,stimulated collagen synthesis
same,Inhibition of fibroblast aging,human fibroblasts,no inhibition of fibroblast aging was found
same,mRNA expression for matrix metalloproteinase-1,human fibroblasts,inhibited the mRNA expression
same,Melanin production,skin cells,reduced production of melanin
same,Effect on hyaluronidase activity,hyaluronidase,no effect
same,WBC (leukocyte) level,"[2]; 0.2% composition, day 32, vs petrolatum, p<0.05",reduced WBC values similar to 1% hydrocortisone
same,WBC (leukocyte) level,"[2]; 1% composition, day 32, vs petrolatum, hydrocortisone p<0.05, urolithin A p<0.01",decrease in the WBC level
same,Final WBC values compared to negative control (without atopic dermatitis),"[2]; 1% hydrocortisone, urolithin A 0.2 and 1%",remained at a higher level compared to negative control groups
same,WBC growth inhibition compared to 1% hydrocortisone,[2]; 1% urolithin A,did not result in a significantly greater effect of WBC growth inhibition
same,"MPV (fl), PDW (fl), PDWcv (%)",[2]; day 32,did not change
same,"RBC, HGB, HCT, MCV",[2]; day 32,no changes
same,Concentration of hemoglobin in erythrocytes (MCH and MCHC),"[2]; day 32, 1% hydrocortisone (p<0.05), urolithin A 0.2 and 1.0%",this effect was not seen
same,Monocyte population,[2]; [5],significantly inhibited the increase in the level of all three leukocyte populations
same,Neutrophil population,[2]; [5],significantly inhibited the increase in the level of all three leukocyte populations
same,Lymphocyte level,"[2]; day 32, 1% hydrocortisone, urolithin A 0.2 and 1%, vs petrolatum",significantly inhibited the increase in the level of all three leukocyte populations
same,"Production of proinflammatory cytokines IL-8, TNF-alpha and IL-1beta by human neutrophils",[3],inhibition of the production of proinflammatory cytokines
same,Toxicity,[4],no toxicity
same,ERK1/2 kinase phosphorylation in THP-1 derived macrophages,ERK1/2,stimulation of ERK1/2 kinase phosphorylation
